One test addresses human FPR2 (Homo sapiens (Human), UniProt P25090). Nature of the test: FPR2 cyclic adenosine monophosphate (cAMP) assay. Type of test: cell-based. The following applies: CHO cells overexpressing human FPR2; inhibition of forskolin (5 μM) stimulated cAMP; read-out: hFPR2 cAMP2 EC50. How it is done: FPR2 and FPR1 Cyclic Adenosine Monophosphate (cAMP) Assays. A mixture of forskolin (5 μM final for FPR2 or 10 μM final for FPR1) and IBMX (200 μM final) were added to 384-well Proxiplates (Perkin-Elmer) pre-dotted with test compounds in DMSO (1% final) at final concentrations in the range of 0.020 nM to 100 μM. Chinese Hamster Ovary cells (CHO) overexpressing human FPR1 or human FPR2 receptors were cultured in F-12 (Ham's) medium supplemented with 10% qualified FBS, 250 μg/ml zeocin and 300 μg/ml hygromycin (Life Technologies). Reactions were initiated by adding 2,000 human FPR2 cells per well or 4,000 human FPR1 cells per well in Dulbecco's PBS (with calcium and magnesium) (Life Technologies) supplemented with 0.1% BSA (Perkin-Elmer). The reaction mixtures were incubated for 30 min at room temperature. The level of intracellular cAMP was determined using the HTRF HiRange cAMP assay reagent kit (Cisbio) according to manufacturer's instruction. Solutions of cryptate conjugated anti-cAMP and d2 flurorophore-labelled cAMP were made in a supplied lysis buffer separately. Upon completion of the reaction, the cells were lysed with equal volume of the d2-cAMP solution and anti-cAMP solution. […] The potency and activity of a compound to inhibit cAMP production was then determined by fitting to a 4-parametric logistic equation from a plot of cAMP level versus compound concentrations.

The target of another test is human FPR1 (Homo sapiens (Human), UniProt P21462). Nature of the test: FPR1 cyclic adenosine monophosphate (cAMP) assay. Format: cell-based. The following applies: CHO cells overexpressing human FPR1; inhibition of forskolin (10 μM) stimulated cAMP; read-out: hFPR1 cAMP EC50. As for the experimental part: FPR2 and FPR1 Cyclic Adenosine Monophosphate (cAMP) Assays. A mixture of forskolin (5 μM final for FPR2 or 10 μM final for FPR1) and IBMX (200 μM final) were added to 384-well Proxiplates (Perkin-Elmer) pre-dotted with test compounds in DMSO (1% final) at final concentrations in the range of 0.020 nM to 100 μM. Chinese Hamster Ovary cells (CHO) overexpressing human FPR1 or human FPR2 receptors were cultured in F-12 (Ham's) medium supplemented with 10% qualified FBS, 250 μg/ml zeocin and 300 μg/ml hygromycin (Life Technologies). Reactions were initiated by adding 2,000 human FPR2 cells per well or 4,000 human FPR1 cells per well in Dulbecco's PBS (with calcium and magnesium) (Life Technologies) supplemented with 0.1% BSA (Perkin-Elmer). The reaction mixtures were incubated for 30 min at room temperature. The level of intracellular cAMP was determined using the HTRF HiRange cAMP assay reagent kit (Cisbio) according to manufacturer's instruction. Solutions of cryptate conjugated anti-cAMP and d2 flurorophore-labelled cAMP were made in a supplied lysis buffer separately. Upon completion of the reaction, the cells were lysed with equal volume of the d2-cAMP solution and anti-cAMP solution. After a 1-h room temperature incubation, time-resolved fluorescence intensity was measured using the Envision (Perkin-Elmer) at 400 nm excitation and dual emission at 590 nm and 665 nm. A calibration curve was constructed with an external cAMP standard at concentrations ranging from 1 μM to 0.1 pM by plotting the fluorescent intensity ratio from 665 nm emission to the intensity from the 590 nm emission against cAMP concentrations. The potency and activity of a compound to inhibit cAMP production was then determined by fitting to a 4-parametric logistic equation from a plot of cAMP level versus compound concentrations.
Chain of human FPR1 (P21462 whole entry): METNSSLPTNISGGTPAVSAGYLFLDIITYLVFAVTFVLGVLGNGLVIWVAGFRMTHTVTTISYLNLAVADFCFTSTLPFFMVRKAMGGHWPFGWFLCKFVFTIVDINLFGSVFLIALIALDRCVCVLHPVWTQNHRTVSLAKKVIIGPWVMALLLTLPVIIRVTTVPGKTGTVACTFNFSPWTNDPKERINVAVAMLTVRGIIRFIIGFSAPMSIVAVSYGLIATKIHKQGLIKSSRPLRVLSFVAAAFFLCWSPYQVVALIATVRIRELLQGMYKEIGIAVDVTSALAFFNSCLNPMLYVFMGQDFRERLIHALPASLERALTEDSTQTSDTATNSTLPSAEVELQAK

Structures are written as SMILES.

Chain of human FPR2 (P25090 whole entry): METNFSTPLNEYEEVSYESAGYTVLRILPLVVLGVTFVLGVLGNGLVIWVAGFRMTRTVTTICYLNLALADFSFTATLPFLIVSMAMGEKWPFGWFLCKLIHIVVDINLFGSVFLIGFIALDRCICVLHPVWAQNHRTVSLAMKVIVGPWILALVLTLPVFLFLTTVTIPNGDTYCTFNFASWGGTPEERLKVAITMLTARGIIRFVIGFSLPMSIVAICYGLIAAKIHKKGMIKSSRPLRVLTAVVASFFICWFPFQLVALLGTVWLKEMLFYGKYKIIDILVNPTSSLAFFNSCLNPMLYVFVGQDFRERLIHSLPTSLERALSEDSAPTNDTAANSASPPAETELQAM

Consider `O=C(Nc1ccc(C(F)(F)F)cc1)N[C@H]1CCCN(c2ccc(-c3ccccc3CO)cc2)C1=O` [Example 58], for which the EC50 worked out at 0.0092 µM at human FPR2 and 0.28 µM at human FPR1.
In the same order, the values of `Cc1cnc(NC(=O)NC2CCCN(c3ccc(-c4ccccc4S(C)(=O)=O)cc3F)C2=O)s1` (stereo not shown) [Example 26, 1-(1-(3-fluoro-2′-(methylsulfonyl)-[1,1′-biphenyl]-4-yl)-2-oxopiperidin-3-yl)-3-(5-methylthiazol-2-yl)urea] are 0.38 µM and 0.21 µM.
In the same order, the values of `CS(=O)(=O)Nc1ccccc1-c1ccc(N2CCC[C@@H](NC(=O)Nc3ccc(Cl)cc3F)C2=O)c(Cl)c1` [Example 299, 1-[(3R)-1-{3-chloro-2′-methanesulfonamido-[1,1′-biphenyl]-4-yl}-2-oxopiperidin-3-yl]-3-(4-chloro-2-fluorophenyl)urea] are 0.0055 µM and 0.13 µM.
The matching figures for `COc1ccc(NC(=O)N[C@@H]2CCCN(c3ccc(-c4ccccc4NS(C)(=O)=O)cc3)C2=O)c(F)c1` [Example 197]: 0.00076 µM and 0.22 µM.
With `NC(=O)c1ccccc1-c1ccc(N2CCC[C@@H](NC(=O)Nc3ccc(C(F)(F)F)cc3)C2=O)cc1` [Example 139], the half-maximal effective concentration (EC50) at human FPR2 amounted to 0.01 µM; on human FPR1 it was 0.15 µM.
Take `COc1ccc(NC(=O)N[C@@H]2CCCN(c3ccc(-c4ccccc4C(N)=O)cc3)C2=O)cc1Cl` [Example 176]: the concentration for a half-maximal effect (EC50) on human FPR2 was 0.78 µM; at human FPR1, 1.2 µM.
In the same order, the values of `CS(=O)(=O)Nc1ccccc1-c1ccc(N2C[C@H](O)C[C@@H](NC(=O)Nc3ccc(Cl)cn3)C2=O)cc1` [Example 215] are 0.002 µM and 0.26 µM.
In the same order, the values of `Cc1ccc(NC(=O)NC2CCCN(c3ccc(-c4cccnc4)cc3)C2=O)cc1` (stereo not shown) [Example 15] are 0.0084 µM and 0.2 µM.
`CC(C)(C)NS(=O)(=O)c1ccccc1-c1ccc(N2CCC[C@@H](NC(=O)Nc3ccc(Cl)cc3)C2=O)cc1` [Example 183]: the EC50 came out at 0.00046 µM on human FPR2 and 0.00056 µM on human FPR1.
In the same order, the values of `O=C(Nc1ccc(C(F)(F)F)cc1)NC1CCCN(c2ccc(-c3ccccc3)cc2)C1=O` (stereo not shown) [Example 36, 1-(1-([1,1′-biphenyl]-4-yl)-2-oxopiperidin-3-yl)-3-(4-(trifluoromethyl)phenyl)urea] are 0.0097 µM and 0.28 µM.
As to `CS(=O)(=O)Nc1ccccc1-c1ccc(N2C[C@H](O)C[C@@H](NC(=O)Nc3ccc(Cl)cc3F)C2=O)cc1` [Example 277, N-(4′-((3R,5R)-3-(3-(4-chloro-2-fluorophenyl)ureido)-5-hydroxy-2-oxopiperidin-1-yl)-[1,1′-biphenyl]-2-yl)methanesulfonamide], the 50% effective concentration (EC50) on human FPR2 amounted to 0.00017 µM; on human FPR1, 0.0084 µM.
The matching figures for `NC(=O)c1ccccc1-c1ccc(N2CCC[C@@H](NC(=O)Nc3ccc(Cl)cc3)C2=O)c(F)c1` [Example 78]: 0.00089 µM and 0.042 µM.
The matching figures for `Cc1cnc(NC(=O)N[C@@H]2CCCN(c3ccc(-c4ccccc4NS(C)(=O)=O)cc3F)C2=O)cn1` [Example 258]: 0.02 µM and above 10 µM.
In the same order, the values of `NC(=O)c1ccccc1-c1ccc(N2CCC[C@@H](NC(=O)Nc3ccc(F)cc3)C2=O)cc1` [Example 174] are 0.45 µM and 0.9 µM.
In the case of `COc1cc(-c2ccccc2NS(C)(=O)=O)ccc1N1CCC[C@@H](NC(=O)Nc2ccc(C(F)(F)F)cn2)C1=O` [Example 256], the 50% effective concentration (EC50) on human FPR2 was 0.017 µM; on human FPR1, 1.4 µM.
In the same order, the values of `CS(=O)(=O)Nc1ccccc1-c1ccc(N2C[C@H](O)C[C@H](NC(=O)Nc3ncc(Cl)cc3F)C2=O)cc1` [Example 214] are 0.00224 µM and 0.16 µM.
In the same order, the values of `COc1ccc(NC(=O)NC2CCCN(c3ccc(-c4ccccc4S(C)(=O)=O)cc3F)C2=O)cc1` (stereo not shown) [Example 17, 1-(1-(3-fluoro-2′-(methylsulfonyl)-[1,1′-biphenyl]-4-yl)-2-oxopiperidin-3-yl)-3-(4-methoxyphenyl)urea] are 0.01 µM and 0.17 µM.
The matching figures for `CCOc1ncccc1-c1ccc(N2CCC[C@@H](NC(=O)Nc3ccc(C(F)(F)F)cc3)C2=O)cc1` [Example 129]: 0.0094 µM and 0.17 µM.
With `Cc1ccncc1-c1ccc(N2CCCC(NC(=O)Nc3ccc(C(F)(F)F)cc3)C2=O)cc1` (stereo not shown) [Example 47, 1-(1-(4-(4-methylpyridin-3-yl)phenyl)-2-oxopiperidin-3-yl)-3-(4-(trifluoromethyl)phenyl)urea], the EC50 on human FPR2 is 0.33 µM; on human FPR1 it was 1.6 µM.
In the same order, the values of `O=C(Nc1ccc(C(F)(F)F)cc1)N[C@@H]1CCCN(c2ccc(-c3cccc(F)c3F)cc2)C1=O` [Example 125] are 0.009 µM and 0.33 µM.

The record behind these values is US11186544B2 (BRISTOL-MYERS SQUIBB COMPANY, priority 2017, dated 2021).
